The source of these data is US8541588B2, “Sulfonamide derivatives” (Pfizer Limited, priority 2009, dated 2013).

SMILES strings stand for the structures.

For the experiment, the target named is T1, Nav1.7 (or SCN9A) channel; HEK cells stably transfected with hSCN9A (Homo sapiens, UniProt Q15858).
T1 construct: expressed in transfected cells
T1 sequence (Q15858 whole entry): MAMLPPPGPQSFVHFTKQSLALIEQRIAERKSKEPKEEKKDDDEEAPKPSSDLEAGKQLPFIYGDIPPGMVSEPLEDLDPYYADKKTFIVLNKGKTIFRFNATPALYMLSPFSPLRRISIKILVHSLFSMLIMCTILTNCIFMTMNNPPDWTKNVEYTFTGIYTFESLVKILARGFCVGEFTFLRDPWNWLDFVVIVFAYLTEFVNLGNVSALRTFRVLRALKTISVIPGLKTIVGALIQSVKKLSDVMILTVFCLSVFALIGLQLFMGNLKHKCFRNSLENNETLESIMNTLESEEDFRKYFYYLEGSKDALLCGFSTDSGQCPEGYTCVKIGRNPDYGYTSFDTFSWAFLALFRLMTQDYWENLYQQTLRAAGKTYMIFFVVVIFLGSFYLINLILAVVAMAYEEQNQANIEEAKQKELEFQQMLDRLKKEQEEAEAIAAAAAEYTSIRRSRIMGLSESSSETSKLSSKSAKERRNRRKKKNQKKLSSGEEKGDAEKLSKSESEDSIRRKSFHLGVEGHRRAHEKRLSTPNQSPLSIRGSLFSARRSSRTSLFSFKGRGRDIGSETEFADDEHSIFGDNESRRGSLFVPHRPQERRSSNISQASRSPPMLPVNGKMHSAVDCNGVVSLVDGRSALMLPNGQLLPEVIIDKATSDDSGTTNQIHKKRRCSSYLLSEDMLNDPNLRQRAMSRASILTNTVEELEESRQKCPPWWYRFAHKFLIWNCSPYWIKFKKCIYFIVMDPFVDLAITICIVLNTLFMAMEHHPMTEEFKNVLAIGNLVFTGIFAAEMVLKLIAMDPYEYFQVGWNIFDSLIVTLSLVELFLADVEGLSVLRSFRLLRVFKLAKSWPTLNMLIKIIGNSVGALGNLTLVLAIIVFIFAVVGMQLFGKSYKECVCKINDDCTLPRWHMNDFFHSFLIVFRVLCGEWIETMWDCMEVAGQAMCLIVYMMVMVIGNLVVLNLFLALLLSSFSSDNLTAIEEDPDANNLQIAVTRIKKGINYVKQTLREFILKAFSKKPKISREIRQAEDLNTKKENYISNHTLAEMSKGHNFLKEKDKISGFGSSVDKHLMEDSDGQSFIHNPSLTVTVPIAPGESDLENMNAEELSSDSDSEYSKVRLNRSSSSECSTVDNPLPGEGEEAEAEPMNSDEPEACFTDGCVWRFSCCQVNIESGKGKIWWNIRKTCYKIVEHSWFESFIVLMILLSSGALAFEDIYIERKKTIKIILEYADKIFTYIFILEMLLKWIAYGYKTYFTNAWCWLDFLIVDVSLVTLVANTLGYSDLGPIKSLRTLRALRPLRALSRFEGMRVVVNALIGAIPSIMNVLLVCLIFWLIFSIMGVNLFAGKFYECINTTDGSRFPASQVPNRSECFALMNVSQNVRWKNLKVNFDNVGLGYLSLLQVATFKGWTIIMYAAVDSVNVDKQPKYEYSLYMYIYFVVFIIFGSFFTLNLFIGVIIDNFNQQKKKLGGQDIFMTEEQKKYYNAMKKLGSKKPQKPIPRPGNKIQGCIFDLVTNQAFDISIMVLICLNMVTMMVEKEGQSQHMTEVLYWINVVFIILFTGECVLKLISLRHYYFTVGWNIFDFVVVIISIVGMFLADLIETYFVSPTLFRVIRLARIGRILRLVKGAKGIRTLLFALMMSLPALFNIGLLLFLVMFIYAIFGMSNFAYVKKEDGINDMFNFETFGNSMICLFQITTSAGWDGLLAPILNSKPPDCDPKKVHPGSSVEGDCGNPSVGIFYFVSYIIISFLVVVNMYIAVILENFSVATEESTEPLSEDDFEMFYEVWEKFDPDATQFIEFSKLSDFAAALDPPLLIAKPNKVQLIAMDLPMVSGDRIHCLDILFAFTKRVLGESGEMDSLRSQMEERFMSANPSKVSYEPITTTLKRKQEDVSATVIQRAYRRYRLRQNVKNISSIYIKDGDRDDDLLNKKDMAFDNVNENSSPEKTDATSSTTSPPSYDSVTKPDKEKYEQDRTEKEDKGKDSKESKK
Briefly: Nav1.7 block, PatchXpress 7000 automated whole-cell voltage clamp, estimated IC50 (EIC50). In kind it is cell-based. As to conditions: estimated IC50; hSCN9A HEK cells, PatchXpress platform; Examples 283-814.
Turning to `N#Cc1cc(S(=O)(=O)Nc2nccs2)ccc1Oc1ccc(Cl)cc1CN1CCC(F)(F)C1` [Example 360, 4-{4-chloro-2-[(3,3-difluoropyrrolidin-1-yl)methyl]phenoxy}-3-cyano-N-1,3-thiazol-2-ylbenzenesulfonamide], the concentration for half-maximal inhibition (IC50) – broadly, the point on the concentration scale where inhibition reaches its midpoint – was 330 nM.

With `Cn1nccc1-c1cc(Cl)ccc1Oc1ccc(S(=O)(=O)Nc2ccncn2)cc1C#N` [Example 361, 4-[4-chloro-2-(1-methyl-1H-pyrazol-5-yl)phenoxy]-3-cyano-N-pyrimidin-4-ylbenzenesulfonamide], the IC50 is 480 nM.

In the case of `Cn1nccc1-c1cc(F)ccc1Oc1cc(F)c(S(=O)(=O)Nc2csnn2)cc1Cl` [Example 364, 5-chloro-2-fluoro-4-(4-fluoro-2-(1-methyl-1H-pyrazol-5-yl)phenoxy)-N-(1,2,3-thiadiazol-4-yl)benzenesulfonamide], the half-maximal inhibitory concentration (IC50) was 480 nM.

On to `Cn1nccc1-c1cc(OC(F)(F)F)ccc1Oc1ccc(S(=O)(=O)Nc2nccs2)cc1F` [Example 365, 3-fluoro-4-[2-(1-methyl-1H-pyrazol-5-yl)-4-(trifluoromethoxy)phenoxy]-N-1,3-thiazol-2-ylbenzenesulfonamide], for which the IC50 was 69 nM.

For `N#Cc1cc(S(=O)(=O)Nc2ccc(F)cn2)ccc1Oc1ccccc1-c1ccccc1` [Example 366, 4-(biphenyl-2-yloxy)-3-cyano-N-(5-fluoropyridin-2-yl)benzenesulfonamide], the IC50 is 4800 nM.

Consider `CCn1nc(C(F)(F)F)cc1-c1ccc(Oc2ccc(S(=O)(=O)Nc3ccc(F)cn3)cc2C#N)cc1` [Example 367, 3-cyano-4-{4-[1-ethyl-3-(trifluoromethyl)-1H-pyrazol-5-yl]phenoxy}-N-(5-fluoropyridin-2-yl)benzenesulfonamide], for which the IC50 was 2400 nM.

Regarding `CCn1nc(C(F)(F)F)cc1-c1cccc(Oc2ccc(S(=O)(=O)Nc3ccc(F)cn3)cc2C#N)c1` [Example 368, 3-cyano-4-{3-[1-ethyl-3-(trifluoromethyl)-1H-pyrazol-5-yl]phenoxy}-N-(5-fluoropyridin-2-yl)benzenesulfonamide], the IC50 is over 1000 nM.

As to `CCn1nc(C2CC2)cc1-c1ccc(Oc2ccc(S(=O)(=O)Nc3nccs3)cc2C#N)cc1` [Example 369, 3-cyano-4-[4-(3-cyclopropyl-1-ethyl-1H-pyrazol-5-yl)phenoxy]-N-1,3-thiazol-2-ylbenzenesulfonamid], the IC50 is 490 nM.

Take `N#Cc1cc(S(=O)(=O)Nc2nccs2)ccc1Oc1ccc(-n2ccc(C3CC3)n2)cc1` [Example 370, 3-cyano-4-[4-(3-cyclopropyl-1H-pyrazol-1-yl)phenoxy]-N-1,3-thiazol-2-ylbenzenesulfonamide]: the 50% inhibitory concentration (IC50) was 1600 nM.

Take `Cn1nc(-c2ccc(Oc3ccc(S(=O)(=O)Nc4nccs4)cc3C#N)cc2)cc1C(F)(F)F` [Example 371, 3-cyano-4-{4-[1-methyl-5-(trifluoromethyl)-1H-pyrazol-3-yl]phenoxy}-N-1,3-thiazol-2-ylbenzenesulfonamide]: the IC50 is 1800 nM.

In the case of `CCn1nc(-c2ccc(Oc3ccc(S(=O)(=O)Nc4nccs4)cc3C#N)cc2)cc1C1CC1` [Example 372, 3-cyano-4-[4-(5-cyclopropyl-1-ethyl-1H-pyrazol-3-yl)phenoxy]-N-1,3-thiazol-2-ylbenzenesulfonamide], the 50% inhibitory concentration (IC50) was 2600 nM.

As for `N#Cc1cc(S(=O)(=O)Nc2nccs2)ccc1Oc1ccc(-c2cc(C3CC3)n[nH]2)c(Cl)c1` [Example 373, 4-[3-chloro-4-(3-cyclopropyl-1H-pyrazol-5-yl)phenoxy]-3-cyano-N-1,3-thiazol-2-ylbenzenesulfonamide], the half-maximal inhibitory concentration (IC50) is over 1000 nM.

Regarding `Cc1cc(-c2ccc(Oc3ccc(S(=O)(=O)Nc4nccs4)cc3C#N)cc2)n(CCO)n1` [Example 374, 3-cyano-4-{4-[1-(2-hydroxyethyl)-3-methyl-1H-pyrazol-5-yl]phenoxy}-N-1,3-thiazol-2-ylbenzenesulfonamide], the IC50 was 1900 nM.

Turning to `CN(C)C(=O)c1cnn(-c2ccc(Oc3ccc(S(=O)(=O)Nc4nccs4)cc3C#N)cc2)c1` [Example 375, 1-(4-{2-cyano-4-[(1,3-thiazol-2-ylamino)sulfonyl]phenoxy}phenyl)-N,N-dimethyl-1H-pyrazole-4-carboxamide], the 50% inhibitory concentration (IC50) is over 1000 nM.

`COCc1cnn(-c2ccc(Oc3ccc(S(=O)(=O)Nc4nccs4)cc3C#N)cc2)c1` [Example 376, 3-cyano-4-{4-[4-(methoxymethyl)-1H-pyrazol-1-yl]phenoxy}-N-1,3-thiazol-2-ylbenzenesulfonamide]: the IC50 is over 1000 nM.

Turning to `CN(C)Cc1cnn(-c2ccc(Oc3ccc(S(=O)(=O)Nc4nccs4)cc3C#N)cc2)c1` [Example 377, 3-cyano-4-(4-{4-[(dimethylamino)methyl]-1H-pyrazol-1-yl}phenoxy)-N-1,3-thiazol-2-ylbenzenesulfonamide], the IC50 was over 1000 nM.

As for `CC(C)(C)NC(=O)c1cnn(-c2ccc(Oc3ccc(S(=O)(=O)Nc4nccs4)cc3C#N)cc2)c1` [Example 378, N-tert-butyl-1-(4-{2-cyano-4-[(1,3-thiazol-2-ylamino)sulfonyl]phenoxy}phenyl)-1H-pyrazole-4-carboxamide], the IC50 was over 1000 nM.

In the case of `N#Cc1cc(S(=O)(=O)Nc2nccs2)ccc1Oc1ccc(-n2cc(C(N)=O)cn2)cc1` [Example 379, 1-(4-{2-cyano-4-[(1,3-thiazol-2-ylamino)sulfonyl]phenoxy}phenyl)-1H-pyrazole-4-carboxamide], the 50% inhibitory concentration (IC50) is over 1000 nM.

For the molecule `N#Cc1cc(S(=O)(=O)Nc2nccs2)ccc1Oc1ccc(-n2ccc(C(F)(F)F)n2)c(Cl)c1` [Example 380, 4-{3-chloro-4-[3-(trifluoromethyl)-1H-pyrazol-1-yl]phenoxy}-3-cyano-N-1,3-thiazol-2-ylbenzenesulfonamide], the IC50 was 200 nM.

Regarding `N#Cc1cc(S(=O)(=O)Nc2nccs2)ccc1Oc1ccc(-n2ccc(C(F)(F)F)n2)c(F)c1` [Example 381, 3-cyano-4-{3-fluoro-4-[3-(trifluoromethyl)-1H-pyrazol-1-yl]phenoxy}-N-1,3-thiazol-2-ylbenzenesulfonamide], the 50% inhibitory concentration (IC50) is 470 nM.

As for `N#Cc1cc(S(=O)(=O)Nc2nccs2)ccc1Oc1ccc(-c2cc(C(F)(F)F)nn2CCO)cc1` [Example 382, 3-cyano-4-{4-[1-(2-hydroxyethyl)-3-(trifluoromethyl)-1H-pyrazol-5-yl]phenoxy}-N-1,3-thiazol-2-ylbenzenesulfonamide], the IC50 was 50 nM.

On to `Cn1nc(C(F)F)cc1-c1ccc(Oc2ccc(S(=O)(=O)Nc3nccs3)cc2C#N)cc1` [Example 383, 3-cyano-4-{4-[3-(difluoromethyl)-1-methyl-1H-pyrazol-5-yl]phenoxy}-N-1,3-thiazol-2-ylbenzenesulfonamide], for which the IC50 was 310 nM.

For `N#Cc1cc(S(=O)(=O)Nc2nccs2)ccc1Oc1ccc(-n2cc(Cl)cn2)c(Cl)c1` [Example 384, 4-[3-chloro-4-(4-chloro-1H-pyrazol-1-yl)phenoxy]-3-cyano-N-1,3-thiazol-2-ylbenzenesulfonamide], the half-maximal inhibitory concentration (IC50) is 350 nM.

On to `N#Cc1cc(S(=O)(=O)Nc2ncns2)ccc1Oc1ccccc1-c1cn[nH]c1` [Example 385, 4-(2-(1H-pyrazol-4-yl)phenoxy)-3-cyano-N-(1,2,4-thiadiazol-5-yl)benzenesulfonamide], for which the IC50 is 67 nM.

`Cn1nccc1-c1cc(F)ccc1Oc1ccc(S(=O)(=O)Nc2ncc(F)s2)cc1C#N` [Example 386, 3-cyano-4-[4-fluoro-2-(1-methyl-1H-pyrazol-5-yl)phenoxy]-N-(5-fluoro-1,3-thiazol-2-yl)benzenesulfonamide]: the IC50 is 91 nM.

Regarding `Cn1nc(C(F)(F)F)cc1-c1ccc(Oc2ccc(S(=O)(=O)Nc3ncc(F)s3)cc2C#N)cc1` [Example 387, 3-cyano-N-(5-fluoro-1,3-thiazol-2-yl)-4-{4-[1-methyl-3-(trifluoromethyl)-1H-pyrazol-5-yl]phenoxy}benzenesulfonamide], the IC50 is 140 nM.

For the molecule `CCn1nc(C)cc1-c1ccc(Oc2ccc(S(=O)(=O)Nc3nccs3)cc2C#N)cc1` [Example 388, 3-cyano-4-[4-(1-ethyl-3-methyl-1H-pyrazol-5-yl)phenoxy]-N-1,3-thiazol-2-ylbenzenesulfonamide], the IC50 was 740 nM.

On to `Cc1nn(C)cc1-c1ccc(Oc2ccc(S(=O)(=O)Nc3nccs3)cc2C#N)cc1` [Example 389, 3-cyano-4-[4-(1,3-dimethyl-1H-pyrazol-4-yl)phenoxy]-N-1,3-thiazol-2-ylbenzenesulfonamide], for which the IC50 is 1100 nM.

For `N#Cc1cc(S(=O)(=O)Nc2nccs2)ccc1Oc1cccc(-n2nc(C(F)F)cc2CO)c1` [Example 390, 3-cyano-4-{3-[3-(difluoromethyl)-5-(hydroxymethyl)-1H-pyrazol-1-yl]phenoxy}-N-1,3-thiazol-2-ylbenzenesulfonamide], the IC50 is 300 nM.

In the case of `N#Cc1cc(S(=O)(=O)Nc2nccs2)ccc1Oc1ccc(I)cc1-c1ccn[nH]1` [Example 391, 3-cyano-4-[4-iodo-2-(1H-pyrazol-5-yl)phenoxy]-N-1,3-thiazol-2-ylbenzenesulfonamide], the IC50 was 2.5 nM.

As to `N#Cc1cc(S(=O)(=O)Nc2cscn2)ccc1Oc1ccc(Cl)cc1-c1ccnc(N)c1` [Example 392, 4-[2-(2-aminopyridin-4-yl)-4-chlorophenoxy]-3-cyano-N-1,3-thiazol-4-ylbenzenesulfonamide], the IC50 is 140 nM.

For `N#Cc1cc(S(=O)(=O)Nc2cscn2)ccc1Oc1ccc(Cl)cc1-c1cn[nH]c1N` [Example 393, 4-[2-(5-amino-1H-pyrazol-4-yl)-4-chlorophenoxy]-3-cyano-N-1,3-thiazol-4-ylbenzenesulfonamide], the IC50 was 990 nM.

In the case of `N#Cc1cc(S(=O)(=O)Nc2cscn2)ccc1Oc1ccc(Cl)cc1-c1cnn(C(F)F)c1` [Example 394, 4-{4-chloro-2-[1-(difluoromethyl)-1H-pyrazol-4-yl]phenoxy}-3-cyano-N-1,3-thiazol-4-ylbenzenesulfonamide], the IC50 was 2900 nM.

`Cn1nc(C(F)(F)F)cc1-c1cc(Cl)ccc1Oc1ccc(S(=O)(=O)Nc2cscn2)cc1C#N` [Example 395, 4-{4-chloro-2-[1-methyl-3-(trifluoromethyl)-1H-pyrazol-5-yl]phenoxy}-3-cyano-N-1,3-thiazol-4-ylbenzenesulfonamide]: the half-inhibitory concentration (IC50) was 1800 nM.
